Test [1] deals with mutated isocitrate dehydrogenase (mIDH) protein overexpressed in LN229 R132H cells (Homo sapiens (Human), UniProt O75874, R132H). The experiment in a line: Mutant IDH1 cellular assay (2-HG in medium of LN229 R132H cells). It counts as cell-based. Conditions: 24 hours, fluorescence readout. How it is done:
Mutant IDH1 Cellular Assay
Levels of (2R)-2-hydroxyglutarate (2HG) were measured in medium of a cell line with overexpression of mutated isocitrate dehydrogenase (mIDH) protein. mIDH catalyzes the NADPH-dependent reduction of alpha-ketoglutarate to 2-HG. Cells (LN229 R132H, Mohrenz et al., Apoptosis (2013) 18:1416-1425) were grown in DMEM containing 10% FCS. They were harvested by trypsin and seeded into 96-well plates. Cells were incubated overnight at 37° C. in 5% CO2. The next day test compounds were added to each cell well. The final concentration of DMSO was 0.1% and DMSO controls were included. The plates were then placed in an incubator for 24 hours.
2-HG was measured according to Balss et al. (Acta Neuropathol (2012) 124: 883-891). Briefly, HClO4 was added to each well and the plates were centrifuged. Aliquots are removed and incubated with hydroxyglutarate dehydrogenase (HGDH), diaphorase, NAD+, and resazurin. The conversion of resazurin to resorufin was detected by fluorescence spectroscopy at Ex 540 nm Em 600 nm. The increase in fluorescence is proportional to 2-HG production. IC50 values are determined by interpolation from plots of relative fluorescence vs inhibitor concentration.

In the next test the target is IDH1 R132H enzyme (Homo sapiens (Human), UniProt O75874, R132H). The experiment in a line: Mutant IDH1 R132H biochemical assay. Conditions: NADPH consumption, luminescent readout; 1.5 nM enzyme, 250 μM α-KG, 1 μM NADPH, 30 minutes, 32° C.; test range 0.002-10 μM. How it is done: mIDH1 catalyzes the NADPH-dependent reduction of alpha-ketoglutarate (α-KG) to (2R)-2-hydroxyglutarate (2-HG). NADPH consumption was measured by luminescent readout.
IDH1 R132H enzyme, sequence (O75874 whole entry R132H): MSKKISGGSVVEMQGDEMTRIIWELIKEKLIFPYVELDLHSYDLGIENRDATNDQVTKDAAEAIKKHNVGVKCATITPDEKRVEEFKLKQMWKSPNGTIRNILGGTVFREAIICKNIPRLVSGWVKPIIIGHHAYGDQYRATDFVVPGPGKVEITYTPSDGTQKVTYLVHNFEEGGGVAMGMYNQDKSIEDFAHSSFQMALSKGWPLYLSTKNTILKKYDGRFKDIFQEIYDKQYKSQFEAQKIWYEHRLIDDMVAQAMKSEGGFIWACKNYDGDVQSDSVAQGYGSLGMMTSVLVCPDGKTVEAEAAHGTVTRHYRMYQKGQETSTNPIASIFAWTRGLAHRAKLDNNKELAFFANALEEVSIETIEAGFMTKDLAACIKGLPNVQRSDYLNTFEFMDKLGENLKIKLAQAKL
The biochemical reactions were performed at 32° C. in 384-well plates using a reaction volume of 41 μl and the following assay buffer conditions: 50 mM Tris pH 7.5, 100 mM NaCl, 20 mM MgCl2, 0.05% BSA, 0.01% Brij, 1 μM NADPH, and 250 μM α-KG. […] Test compounds were used in a concentration range between 0.002 and 10 μM. The final DMSO concentration was 2.4%.
The reaction was incubated for 30 minutes, then 40 μl of detection mix (0.75 μg/ml Luciferase, 0.02 U/ml Oxidoreductase, 4 μg/ml FMN, 2 μl/ml Decanal/Ethanol, 50 mM Tris pH 7.5, 0.5% Glycerin, 0.01% Tween-20, 0.05% BSA) was added. Luminescence was measured on a luminescent reader (10 seconds measuring time, 1 second integration period, 30% sensitivity). The decrease in luminescence is proportional to mIDH1 activity. IC50 values are determined by interpolation from plots of relative luminescence versus inhibitor concentration.

Our source for the IC50 values is patent US10137110B2, “1-cyclohexyl-2-phenylaminobenzimidazoles as mIDH1 inhibitors for the treatment of tumors” (Bayer Pharma Aktiengesellschaft, priority 2014, dated 2018).

mutated isocitrate dehydrogenase (mIDH) protein overexpressed in LN229 R132H cells, sequence (O75874 whole entry R132H): as above

In the case of `Cc1noc(C)c1-c1ccc2c(c1)nc(Nc1ccc(SC(F)(F)F)cc1)n2[C@H]1C[C@@H](C)CC(C)(C)C1` (stereo in doubt) [Example 2-21-2], the half-maximal inhibitory concentration (IC50) was 2.5 µM in test [1] and 0.29 µM at IDH1 R132H enzyme.
Regarding `C[C@H]1C[C@@H](n2c(Nc3ccc(OC(F)(F)F)cc3)nc3cc(-c4cnn(C)c4)ccc32)CC(C)(C)C1` (stereo in doubt) [Example 2-13], the IC50 in test [1] was determined as 5 µM; against IDH1 R132H enzyme it was 1.1 µM.
For `Cc1n[nH]c(C)c1-c1ccc2c(c1)nc(Nc1ccc(SC(F)(F)F)cc1)n2[C@H]1C[C@@H](C)CC(C)(C)C1` (stereo in doubt) [Example 2-10-2], the half-inhibitory concentration (IC50) is 3 µM in test [1] and 0.14 µM against IDH1 R132H enzyme.
On to `Cc1cc(-c2ccc3c(c2)nc(Nc2ccc(OC(F)(F)F)cc2)n3[C@@H]2C[C@H](C)CC(C)(C)C2)n(C)n1` (stereo in doubt) [Example 2-12], for which the values for the IC50 (in test [1]; against IDH1 R132H enzyme) were 8 µM and 0.1 µM, respectively.
Turning to `Cc1nnc(-c2cc3nc(Nc4ccc(OC(F)(F)F)cc4)n(C4CC(C)(C)CC(C)(C)C4)c3cc2C)[nH]1` [Example 2-30, 6-methyl-5-(5-methyl-4H-1,2,4-triazol-3-yl)-1-(3,3,5,5-tetramethylcyclohexyl)-N-[4-(trifluoromethoxy)phenyl]-1H-benzimidazol-2-amine], the IC50 in test [1] was 1.5 µM; on IDH1 R132H enzyme, 0.12 µM.
The matching figures for `Cc1nn(C)c(C)c1-c1ccc2c(c1)nc(Nc1ccc(OC(F)(F)F)cc1)n2[C@@H]1C[C@H](C)CC(C)(C)C1` (stereo in doubt) [Example 2-19]: 10 µM and 1.9 µM.
For `Cc1n[nH]c(C)c1-c1ccc2c(c1)nc(Nc1ccc(SC(F)(F)F)cc1)n2[C@@H]1C[C@H](C)CC(C)(C)C1` (stereo in doubt) [Example 2-10], the half-inhibitory concentration (IC50) was determined as 2 µM in test [1] and 0.14 µM at IDH1 R132H enzyme.
With `CC1(C)CC(n2c(Nc3ccc(OC(F)(F)F)cc3)nc3cc(-c4nnn[nH]4)ccc32)CC(C)(C)C1` [Example 2-28, 1-(3,3,5,5-tetramethylcyclohexyl)-5-(1H-tetrazol-5-yl)-N-[4-(trifluoromethoxy)-phenyl]-1H-benzimidazol-2-amine], the IC50 in test [1] was found to be 0.2 µM; against IDH1 R132H enzyme, 0.07 µM.
`Cc1n[nH]cc1-c1ccc2c(c1)nc(Nc1ccc(OC(F)(F)F)cc1)n2[C@@H]1C[C@H](C)CC(C)(C)C1` (stereo in doubt) [Example 2-7]: the values for the IC50 (in test [1]; at IDH1 R132H enzyme) were 1.2 µM and 0.11 µM, respectively.
For `Cc1n[nH]c(C)c1-c1ccc2c(c1)nc(Nc1ccc(OC(F)(F)F)cc1)n2[C@H]1C[C@@H](C)CC(C)(C)C1` (stereo in doubt) [Example 2-5-2], the values for the IC50 (in test [1]; against IDH1 R132H enzyme) were 1.5 µM and 1.54 µM, respectively.
For `C[C@H]1C[C@@H](n2c(Nc3ccc(OC(F)(F)F)cc3)nc3cc(-c4ccn[nH]4)ccc32)CC(C)(C)C1` (stereo in doubt) [Example 2-8] the same measures were 2 µM and 0.13 µM.
In the case of `C[C@H]1C[C@@H](n2c(Nc3ccc(OC(F)(F)F)cc3)nc3cc(-c4cccc(C(N)=O)c4)ccc32)CC(C)(C)C1` (stereo in doubt) [Example 2-11], the figures for the IC50 (in test [1]; on IDH1 R132H enzyme) were 2.8 µM and 0.21 µM, respectively.
`Cc1noc(C)c1-c1ccc2c(c1)nc(Nc1ccc(C(F)(F)F)cc1)n2[C@H]1C[C@@H](C)CC(C)(C)C1` (stereo in doubt) [Example 2-23-2]: the figures for the IC50 (in test [1]; on IDH1 R132H enzyme) were 10 µM and 0.18 µM, respectively.
Consider `Cc1n[nH]c(C)c1-c1ccc2c(c1)nc(Nc1ccc(SC(F)(F)F)cc1)n2[C@@H]1C[C@H](C)CC(C)(C)C1` (stereo in doubt) [Example 2-10-1], for which the concentration for half-maximal inhibition (IC50) in test [1] was 10 µM; on IDH1 R132H enzyme it was 0.3 µM.
For `C[C@H]1C[C@@H](n2c(Nc3ccc(OC(F)(F)F)cc3)nc3cc(-c4cnoc4)ccc32)CC(C)(C)C1` (stereo in doubt) [Example 2-9] the same measures were 2 µM and 0.18 µM.
For the compound `Cc1cc2c(cc1-c1cc(O)no1)nc(Nc1ccc(OC(F)(F)F)cc1)n2C1CC(C)(C)CC(C)(C)C1` [Example 2-37, 5-[6-methyl-1-(3,3,5,5-tetramethylcyclohexyl)-2-{[4-(trifluoromethoxy)phenyl]amino}-1H-benzimidazol-5-yl]-1,2-oxazol-3-ol], the IC50 in test [1] was found to be 0.25 µM; at IDH1 R132H enzyme, 0.03 µM.
Regarding `Cc1noc(C)c1-c1ccc2c(c1)nc(Nc1ccc(OC(F)(F)F)cc1)n2[C@H]1C[C@@H](C)CC(C)(C)C1` (racemic) [Example 2-1, (±) 5-(3,5-dimethyl-1,2-oxazol-4-yl)-N-[4-(trifluoromethoxy)phenyl]-1-[(cis)-3,3,5-trimethylcyclohexyl]-1H-benzimidazol-2-amine], the half-inhibitory concentration (IC50) is 0.9 µM in test [1] and 0.12 µM on IDH1 R132H enzyme.
As for `Cc1noc(C)c1-c1ccc2c(c1)nc(Nc1ccc(SC(F)(F)F)cc1)n2[C@@H]1C[C@H](C)CC(C)(C)C1` (stereo in doubt) [Example 2-21-1], the 50% inhibitory concentration (IC50) in test [1] is 10 µM; against IDH1 R132H enzyme, 1.1 µM.
As for `Cc1nc(-c2ccc3c(c2)nc(Nc2ccc(OC(F)(F)F)cc2)n3C2CC(C)(C)CC(C)(C)C2)no1` [Example 2-26, 5-(5-Methyl-1,2,4-oxadiazol-3-yl)-1-(3,3,5,5-tetramethylcyclohexyl)-N-[4-(trifluoromethoxy)phenyl]-1H-benzimidazol-2-amine], the figures for the 50% inhibitory concentration (IC50) (in test [1]; at IDH1 R132H enzyme) were 10 µM and 0.22 µM, respectively.
